Legend:
[1] = target: T1, human metabotropic glutamate receptor mGluR5 (Homo sapiens, UniProt P41594); test: Cytosolic calcium studies with stably transfected cells (h5CHO), functional assay of mGluR5 receptors; format: cell-based; settings: for h left shift / EC50: Table A1; for h left shift: left shift of agonist EC50, dose response curves in the presence of 10 µM modulator or vehicle; for h left shift / IC50: h5CHO cells; for EC50: positive modulators, h5CHO cells preincubated with modulator, stimulated by an EC20 concentration of L-glutamate, read-out: hEC50; for IC50: Table A2, negative modulation, compounds added 5 minutes before L-quisqualic acid (~80% of the maximal signal), read-out: hIC50
T1 construct: expressed in transfected cells; host or cells: CHO-K1 (h5CHO), IPTG-inducible
T1 sequence (P41594 21-1212): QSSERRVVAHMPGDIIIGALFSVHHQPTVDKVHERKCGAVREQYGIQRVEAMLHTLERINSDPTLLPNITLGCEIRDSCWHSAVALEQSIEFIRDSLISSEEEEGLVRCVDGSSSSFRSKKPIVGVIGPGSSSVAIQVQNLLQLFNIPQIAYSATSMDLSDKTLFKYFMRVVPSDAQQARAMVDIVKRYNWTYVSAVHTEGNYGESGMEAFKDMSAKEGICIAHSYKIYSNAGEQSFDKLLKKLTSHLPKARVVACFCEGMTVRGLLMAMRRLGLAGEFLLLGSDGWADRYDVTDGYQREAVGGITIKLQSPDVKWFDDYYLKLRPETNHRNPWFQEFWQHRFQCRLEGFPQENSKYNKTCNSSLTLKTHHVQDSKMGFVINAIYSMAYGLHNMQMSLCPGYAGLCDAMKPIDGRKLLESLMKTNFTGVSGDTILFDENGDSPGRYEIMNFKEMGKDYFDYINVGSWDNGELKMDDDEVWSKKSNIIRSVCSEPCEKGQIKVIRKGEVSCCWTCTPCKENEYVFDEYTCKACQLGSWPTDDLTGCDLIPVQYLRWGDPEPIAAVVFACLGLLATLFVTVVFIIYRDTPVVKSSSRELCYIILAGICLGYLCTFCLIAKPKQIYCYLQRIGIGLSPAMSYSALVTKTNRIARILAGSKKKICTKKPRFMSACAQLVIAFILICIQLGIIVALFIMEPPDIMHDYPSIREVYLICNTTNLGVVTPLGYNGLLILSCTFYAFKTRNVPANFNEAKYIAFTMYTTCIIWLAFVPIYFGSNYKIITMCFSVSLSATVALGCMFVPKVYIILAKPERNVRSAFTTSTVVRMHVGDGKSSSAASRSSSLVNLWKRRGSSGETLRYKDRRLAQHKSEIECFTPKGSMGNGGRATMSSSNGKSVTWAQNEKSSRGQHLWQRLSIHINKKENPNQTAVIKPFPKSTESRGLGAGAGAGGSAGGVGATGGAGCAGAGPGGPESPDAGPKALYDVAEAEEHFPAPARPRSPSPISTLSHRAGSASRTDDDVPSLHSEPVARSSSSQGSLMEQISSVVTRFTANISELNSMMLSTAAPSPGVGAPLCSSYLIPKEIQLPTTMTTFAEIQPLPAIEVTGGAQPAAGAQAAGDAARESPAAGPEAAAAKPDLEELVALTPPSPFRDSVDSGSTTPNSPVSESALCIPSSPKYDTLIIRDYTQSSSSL
Procedure: Chinese hamster ovary cells (CHO-K1 cells), stably transfected for inducible expression of a human metabotropic glutamate receptor mGluR5 to form a cell line called h5CHO, are seeded into black clear bottom 96 well plates at a density of 35.000 cells per well. The standard growth medium used (Dulbecco's modified Eagle Medium, DMEM plus L-proline) contains the appropriate inducer isopropyl-β-D-thiogalactopyranosid (IPTG) to achieve optimal receptor expression. One day after seeding the growth medium is exchanged for reconstituted Ca-Kit (Molecular Devices, USA) and incubated for one hour. Ca-Kit is reconstituted in an assay buffer containing 20 mM HEPES pH 7.4, glutamic-pyruvate transaminase, pyridoxal phosphate and sodium pyruvate in Hank's balanced salt solution (HBBS). Agonistic compounds to the receptor elicit increases in cytosolic calcium which can be measured as increases in fluorescence signals by use of a fluorescence imaging plate reader (Molecular Devices). To analyze their potency to negatively modulate the Ca-response test compounds, dissolved in a final DMSO concentration of 0.5%, are added on-line 5 minutes before the agonist to the receptor (L-quisqualic acid at a concentration giving ~80% of the maximal signal). EC50 values for positive allosteric modulators were determined by stimulating the cells which have been preincubated the modulators by an EC20 concentration of L-glutamate.
(§1) The fluorescence signal increase after addition of agonist reflects the increase of cytosolic calcium. Inconsistencies in the amount of cells per well are normalised by using the spatial uniformity correction of the FLIPR operating software Screenworks. The mean of replicated temporal data (n=3-5) is calculated and used for graphical representation. For the evaluation of the pharmacology, the calcium changes in response to different concentrations of agonist or antagonist are determined using a maximum minus minimum (MaxMin) calculation.
(§2) All responses (RFU-values) are determined as percentage of control (= maximum response). EC50 and IC50 are calculated according the logistic equation using XLFit (IDBS, UK) or Prism 4.0 (GraphPad Software, USA). The compounds of the present invention have a potency (EC50 or IC50) within a range of about 0.5 nM to about 100 µM. The left shifts for positive or slient allosteric modulators (PAMs or SAMs, respectively) are determined by comparison of EC50 values from agonist dose response curves run in the presence of 10 µM modulator or vehicle (Vanejevs et al., J. Med. Chem., 2008, 51, 634-647).

mGluR5 receptors = target: T2, mGluR5 receptors (Rattus norvegicus, UniProt P31424); test: Cytosolic calcium studies with astrocytes (FLIPR), functional assay of mGluR5 receptors; format: cell-based; settings: for r left shift: Table A1, left shift of quisqualate EC50 in the presence and absence of 10 µM modulator; for EC50: Table A1, positive modulators, fixed concentration of quisqualate (normally 10-30 nM), read-out: rEC50
T2 construct: Primary astrocyte cultures are prepared from cortices of newborn rats; endogenous in cells; host or cells: primary cortical astrocytes from Sprague-Dawley rat pups (2-4 d old)
T2 sequence (P31424 21-1203): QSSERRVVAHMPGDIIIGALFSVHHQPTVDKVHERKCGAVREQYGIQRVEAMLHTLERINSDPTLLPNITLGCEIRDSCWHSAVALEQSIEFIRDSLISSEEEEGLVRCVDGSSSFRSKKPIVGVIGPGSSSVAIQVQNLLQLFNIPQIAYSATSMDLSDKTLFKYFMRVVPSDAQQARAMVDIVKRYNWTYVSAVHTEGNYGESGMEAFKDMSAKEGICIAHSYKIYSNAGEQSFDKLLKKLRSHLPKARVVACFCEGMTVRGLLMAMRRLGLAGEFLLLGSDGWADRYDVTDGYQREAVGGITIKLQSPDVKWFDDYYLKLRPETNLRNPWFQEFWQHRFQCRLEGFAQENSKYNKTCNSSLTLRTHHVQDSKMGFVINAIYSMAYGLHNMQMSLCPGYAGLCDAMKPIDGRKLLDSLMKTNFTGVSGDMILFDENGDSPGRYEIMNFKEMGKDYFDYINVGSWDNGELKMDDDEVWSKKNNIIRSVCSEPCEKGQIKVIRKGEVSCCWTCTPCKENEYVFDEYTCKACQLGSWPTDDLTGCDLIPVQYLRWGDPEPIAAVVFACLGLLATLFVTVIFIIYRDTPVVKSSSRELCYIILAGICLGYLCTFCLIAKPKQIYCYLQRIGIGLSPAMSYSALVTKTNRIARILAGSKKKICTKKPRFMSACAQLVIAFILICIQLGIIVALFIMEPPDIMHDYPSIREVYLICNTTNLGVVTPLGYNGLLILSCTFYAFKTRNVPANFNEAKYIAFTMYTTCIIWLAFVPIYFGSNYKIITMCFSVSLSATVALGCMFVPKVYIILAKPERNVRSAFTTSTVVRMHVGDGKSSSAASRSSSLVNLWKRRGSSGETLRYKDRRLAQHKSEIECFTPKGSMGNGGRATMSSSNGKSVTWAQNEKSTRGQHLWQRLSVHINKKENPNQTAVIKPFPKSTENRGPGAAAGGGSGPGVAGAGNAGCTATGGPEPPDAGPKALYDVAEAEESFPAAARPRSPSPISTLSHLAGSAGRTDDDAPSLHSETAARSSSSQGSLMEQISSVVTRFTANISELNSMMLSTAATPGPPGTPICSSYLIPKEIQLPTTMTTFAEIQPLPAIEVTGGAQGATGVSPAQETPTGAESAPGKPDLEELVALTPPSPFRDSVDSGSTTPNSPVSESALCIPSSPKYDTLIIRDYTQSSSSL
Procedure: Primary astrocyte cultures are prepared from cortices of newborn rats as described by Booher and Sensenbrenner (1972, Neurobiology 2(3):97-105). Briefly, Sprague-Dawley rat pups (2 - 4 d old) are decapitated and neocortices are dissected, disintegrated with a nylon filter (pore size 80 µm) and carefully triturated. The cell suspension is plated on poly-D-lysine pre-coated flasks (Costar, Netherlands) and cultivated in Dulbecco's Modified Eagle's Medium (DMEM, Invitrogen, Germany) supplemented with 10% foetal calf serum (FCS, Sigma, Germany), 4 mM glutamine and 50 µg/ml gentamycin (both Biochrom, Germany) at 37°C in a humidified atmosphere of 5% CO2/ 95% air for 7 days with exchanging the medium at day 2 and 6.
After 7 days in vitro (DIV), cells are shaken overnight at 250 rpm to remove oligodendrocytes and microglia. The next day, astrocytes are rinsed twice with CMF-PBS (calcium- and magnesium-free phosphate buffered saline, Biochrom, Germany), trypsinized and subplated on poly-D-lysine pre-coated 96-well plates (Greiner, Germany) at a density of 40,000 cells/well. 24 h after establishing the secondary culture the astrocytes are rinsed with PBS^++ (phosphate buffered saline, Biochrom, Germany) and fed with astrocyte-defined medium (ADM) consisting of DMEM containing 1x G5-supplement (Invitrogen, Germany), 0.5 µg/ml heparan sulfate, and 1.5 µg/ml fibronectin (both Sigma, Germany) (Miller et al., (1993) Brain Res. 618(1):175-8). 3 days later the medium is exchanged and the cells incubated for another 2-3 days, so that at the time of experiments astrocytes are 14-15 DIV.
The increase of cytosolic calcium after stimulation with the mGluR5 agonist L-quisqualate is measured using a fluorometric imaging plate reader (FLIPR) and the Ca-Kit (both Molecular Devices). Prior to addition of agonist or antagonist the medium is aspirated and cells are loaded for 2 h at RT with 150 µl of loading buffer consisting of Ca-sensitive dye reconstituted in sodium chloride (123 mM), potassium chloride (5.4 mM), magnesium chloride (0.8 mM), calcium chloride (1.8 mM), D-glucose (15 mM), and HEPES (20 mM), pH 7.3. Subsequently, plates are transferred to FLIPR to detect calcium increase with the addition of L-quisqualate (100 nM) measured as relative fluorescence units (RFU). If antagonists are tested, these compounds are pre-incubated for 10 minutes at RT before addition of the respective agonist.
For positive modulators, concentration-response curves for quisqualate are performed in the presence and absence of 10 µM modulator to determine the extent of potentiation / agonist potency increase. Thereafter, concentration-response curves for the positive modulator are performed in the presence of a fixed concentration of quisqualate showing the biggest window for potentiation (normally 10-30 nM).
as §1, §2

Compound | h left shift [1] | IC50 [1] [nM] | also measured
COC1CCCc2ncc(C#Cc3ccccc3)cc21 (racemic) [Example 1, (rac)-5-Methoxy-3-(phenylethynyl)-5,6,7,8-tetrahydroquinoline] | 2.6-fold |  | EC50 [1]: 32.1 nM; r left shift (mGluR5 receptors): 4.9-fold; EC50 (mGluR5 receptors): 22.7 nM
COC1CCCc2ncc(C#Cc3cccc(N)n3)cc21 (racemic) [Example 3, (rac)-6-((5-Methoxy-5,6,7,8-tetrahydroquinolin-3-yl)ethynyl)pyridin-2-amine] |  | 4230 | 
COC1CC(C)(C)Cc2ncc(C#Cc3ccccc3)cc21 (racemic) [Example 4, (rac)-5-Methoxy-7,7-dimethyl-3-(phenylethynyl)-5,6,7,8-tetrahydroquinoline] |  | 341 | 
COC1CC(C)(C)Cc2ncc(C#Cc3cccc(N)n3)cc21 (racemic) [Example 5, (rac)-6-((5-Methoxy-7,7-dimethyl-5,6,7,8-tetrahydroquinolin-3-yl)ethynyl)pyridin-2-amine] |  | 66.7 | IC50 (mGluR5 receptors; Table A2, pre-incubated 10 minutes before L-quisqualate (100 nM), read-out: rIC50): 45.7 nM
COC1CC(C)(C)Cc2ncc(C#Cc3cn4ccccc4n3)cc21 (racemic) [Example 6, (rac)-3-(Imidazo[1,2-a]pyridin-2-ylethynyl)-5-methoxy-7,7-dimethyl-5,6,7,8-tetrahydroquinoline] |  | 695 | 
COC1CC(C)(C)Oc2ncc(C#Cc3cccc(N)n3)cc21 (racemic) [Example 7, (rac)-6-((4-Methoxy-2,2-dimethyl-3,4-dihydro-2H-pyrano[2,3-b]pyridin-6-yl)ethynyl)pyridin-2-amine] |  | 203 | 
COC1CC(C)(C)Oc2ncc(C#Cc3cn4ccccc4n3)cc21 (racemic) [Example 8, (rac)-6-(Imidazo[1,2-a]pyridin-2-ylethynyl)-4-methoxy-2,2-dimethyl-3,4-dihydro-2H-pyrano[2,3-b]pyridine] |  | 225 | 
O=C1NCC2(CCCc3ncc(C#Cc4ccccc4)cc32)O1 (racemic) [Example 10, (rac)-3'-(Phenylethynyl)-7',8'-dihydro-6'H-spiro[oxazolidine-5,5'-quinolin]-2-one] | 1.8-fold |  | 
CN1CC2(CCCc3ncc(C#Cc4ccccc4)cc32)OC1=O (racemic) [Example 11, (rac)-3-Methyl-3'-(phenylethynyl)-7',8'-dihydro-6'H-spiro[oxazolidine-5,5'-quinolin]-2-one] | 1.8-fold |  | EC50 [1]: 53.7 nM; r left shift (mGluR5 receptors): 2.9-fold; EC50 (mGluR5 receptors): 58.6 nM
O=C1OC2(CCCc3ncc(C#Cc4ccccc4)cc32)CN1c1ccccc1 (racemic) [Example 12, (rac)-3-Phenyl-3'-(phenylethynyl)-7',8'-dihydro-6'H-spiro[oxazolidine-5,5'-quinolin]-2-one] | 1.9-fold |  | EC50 [1]: 966 nM; EC50 (mGluR5 receptors): 856 nM
CN1CCO[C@@H]2c3cc(C#Cc4ccccc4)cnc3CC[C@@H]21 (racemic) [Example 13, (rac)-cis-4-Methyl-9-(phenylethynyl)-3,4,4a,5,6,10b-hexahydro-2H-[1,4]oxazino[2,3-f]quinoline] | 1.7-fold |  | EC50 [1]: 425 nM; r left shift (mGluR5 receptors): 1.7-fold
CCN1CCO[C@@H]2c3cc(C#Cc4ccccc4)cnc3CC[C@@H]21 (racemic) [Example 14, (rac)-cis-4-Ethyl-9-(phenylethynyl)-3,4,4a,5,6,10b-hexahydro-2H-[1,4]oxazino[2,3-f]quinoline] | 2.2-fold |  | EC50 [1]: 659 nM; r left shift (mGluR5 receptors): 3.6-fold; EC50 (mGluR5 receptors): 580 nM
CN1CCC2Cc3ncc(C#Cc4ccccc4)cc3CN2C1=O (racemic) [Example 57, (rac)-8-Methyl-3-(phenylethynyl)-9,10,10a,11-tetrahydro-5H-pyrimido[1,6-g][1,6]naphthyridin-7(8H)-one] |  | 190 | 
COC(=O)N1Cc2cc(C#Cc3cccc(F)c3)cnc2[C@H]2CCC[C@H]21 (racemic) [Example 61, (rac)-cis-Methyl 3-((3-fluorophenyl)ethynyl)-7,8,9,9a-tetrahydro-5H-cyclopenta[h][1,6]naphthyridine-6(6aH)-carboxylate] |  | 132 | 
COC(=O)N1Cc2cc(C#Cc3ccccc3)cnc2[C@H]2CCCC[C@H]21 (racemic) [Example 62, (rac)-cis-Methyl 3-(phenylethynyl)-6a,7,8,9,10,10a-hexahydrobenzo[h][1,6]naphthyridine-6(5H)-carboxylate] |  | 1400 | 
COC(=O)N1Cc2cc(C#Cc3cccc(F)c3)cnc2[C@H]2CCCC[C@H]21 (racemic) [Example 63, (rac)-cis-Methyl 3-((3-fluorophenyl)ethynyl)-6a,7,8,9,10,10a-hexahydrobenzo[h][1,6]naphthyridine-6(5H)-carboxylate] |  | 1320 | 
CC(C)(C)C(=O)N1CCc2ncc(C#Cc3cccc(N)n3)cc2C1 [Example 35, 1-(3-((6-Aminopyridin-2-yl)ethynyl)-7,8-dihydro-1,6-naphthyridin-6(5H)-yl)-2,2-dimethylpropan-1-one] |  | 617 | 
CN(C)C(=O)N1CCc2ncc(C#Cc3ccccc3)cc2C1 [Example 44, N,N-Dimethyl-3-(phenylethynyl)-7,8-dihydro-1,6-naphthyridine-6(5H)-carboxamide] |  | 247 | 
CN(C)C(=O)N1CCc2ncc(C#Cc3cccc(N)n3)cc2C1 [Example 47, 3-((6-Aminopyridin-2-yl)ethynyl)-N,N-dimethyl-7,8-dihydro-1,6-naphthyridine-6(5H)-carboxamide] |  | 261 | 
CCN(CC)C(=O)N1CCc2ncc(C#Cc3cccc(C#N)c3)cc2C1 [Example 48, 3-((3-Cyanophenyl)ethynyl)-N,N-diethyl-7,8-dihydro-1,6-naphthyridine-6(5H)-carboxamide] |  | 194 | 
Cc1cccc(C#Cc2cnc3c(c2)CS(=O)(=O)CC3)c1 [Example 68, 3-(m-Tolylethynyl)-7,8-dihydro-5H-thiopyrano[4,3-b]pyridine 6,6-dioxide] |  | 75.5 | 
CC1(C)c2cc(C#Cc3ccccc3)cnc2CCS1(=O)=O [Example 75, 5,5-Dimethyl-3-(phenylethynyl)-7,8-dihydro-5H-thiopyrano[4,3-b]pyridine 6,6-dioxide] | 1.6-fold |  | EC50 [1]: 971 nM
